Reference: the NIST ThermoML archive (doi:10.1016/j.jct.2004.01.003)

Experiment: mn = molality of the nth substance listed, in mol/kg
Details: 350 kPa, Liquid

O=[N+]([O-])[O-].O=[N+]([O-])[O-].[Ba+2] [barium dinitrate] + O
apparent molar volume [m3/mol]
Details	m1 = 0.02026	m1 = 0.0208	m1 = 0.03085	m1 = 0.0401	m1 = 0.05028	m1 = 0.07046	m1 = 0.1005	m1 = 0.1931
278.15 K	3.67e-05	3.55e-05	3.91e-05	3.99e-05	3.81e-05	4.19e-05	4.18e-05	4.43e-05
283.15 K	3.99e-05	3.77e-05	4.13e-05	4.27e-05	4.16e-05	4.41e-05	4.44e-05	4.63e-05
288.15 K	4.18e-05	4.07e-05	4.28e-05	4.4e-05	4.39e-05	4.53e-05	4.59e-05	4.77e-05
298.15 K	4.32e-05	4.44e-05	4.64e-05	4.8e-05	4.82e-05	4.84e-05	4.9e-05	5.08e-05
308.15 K	4.53e-05	4.61e-05	4.89e-05	5.05e-05	5.07e-05	5.07e-05	5.12e-05	5.3e-05
318.15 K	4.89e-05	4.77e-05	4.97e-05	5.24e-05	5.25e-05	5.26e-05	5.27e-05	5.48e-05
328.15 K	5.14e-05	5.01e-05	5.17e-05	5.39e-05	5.38e-05	5.39e-05	5.38e-05	5.57e-05
338.15 K	5.31e-05	5.15e-05	5.29e-05	5.46e-05	5.43e-05	5.46e-05	5.47e-05	5.66e-05
348.15 K	5.4e-05	5.21e-05	5.35e-05	5.52e-05	5.49e-05	5.51e-05	5.52e-05	5.71e-05
358.15 K	5.5e-05	5.21e-05	5.38e-05	5.49e-05	5.53e-05	5.51e-05	5.54e-05	5.73e-05
368.15 K	4.76e-05	5.17e-05	5.39e-05	5.44e-05	5.5e-05	5.46e-05	5.5e-05	5.71e-05
